Test results reported in a melting point compilation (Tetko et al.; mined from patent text by program, amines drawn as free bases though some values may be those of a salt).

Row | SMILES | melting point
1 | COc1nc(C)nc(NC(=O)NS(=O)(=O)c2cccnc2OCC2CC2)n1 | 165 to 167 °C
2 | O=[N+]([O-])c1ccc2c(c1)OC(CC(F)(F)F)(C(F)(F)F)O2 (configuration not stated) | 87 to 88 °C
3 | CCn1ncc2c1ncc1c(=O)[nH]c3nc(SC)nn3c12 | > 300 °C
4 | COc1ccc(C(=O)CC2CCCCCCC2=O)cc1 (configuration not stated) | 54 to 56 °C
5 | CCNc1cc(Oc2ccc(NC(=O)NC3Cc4ccc(Br)cc4C3)cc2)ncn1 (configuration not stated) | 247 °C
6 | O=C1Nc2cccnc2N(C(=O)N2CCCCC2CCCCN2CCCCC2)c2ccccc21 (configuration not stated) | 199 to 201 °C
7 | CCN(CC)c1ccc([N+](=O)[O-])c2nnoc12 | 133 to 136 °C
8 | NS(=O)(=O)c1cc2[nH]ccc2cc1F | 181 to 182 °C
9 | Cc1noc(C)c1CON1C(=O)c2ccccc2C1=O | 144 to 146 °C
10 | Oc1cc2c(cc1F)[C@H](O)[C@H](N1CCC(O)(c3ccc(F)cc3)CC1)CO2 (relative stereo) | 160 to 161 °C
11 | COc1ccc2c(c1)C13CCN(C#N)C(C2)C1CC(C)C(=O)C3 (configuration not stated) | 188 to 192 °C
12 | COc1ccc(CCNC(C)=O)cc1OC | 99 to 100 °C
13 | CCS(=O)(=O)OC(c1cccc(C(O)(C(F)(F)F)C(F)(F)F)c1)(C(F)(F)F)C(F)(F)F | 64 °C
14 | CC(CCCc1ccc(F)cc1)c1cc(O)c2c(c1)OC(C)(C)c1ccncc1-2 (configuration not stated) | 72 to 74 °C
15 | CCCCCN1N=C(c2ccc(OCC)c(OCC)c2)[C@@H]2CCCC[C@@H]2C1=O (relative stereo) | 98 to 99 °C
16 | CCOC(OCC)N1C(=O)OC(C)(C)c2cc(-c3cc(F)cc(C#N)c3)ccc21 | 123 to 124 °C
17 | CC(C)(C)C(=O)Nc1cc(Cl)ccc1Cl | 74 to 76 °C
18 | CCOC(=O)P(=O)(O)C(=O)OCC | 150 to 155 °C
19 | CCCNc1nnc(C)o1 | 46.5 to 47.5 °C
20 | Nc1cccc(NC(=O)NC2N=C(c3ccccc3F)c3ccccc3N(CC(=O)N3CC4CCC(CC4)C3)C2=O)c1 (racemic) | > 250 °C
21 | CN1C(=O)C(=Cc2cc(C(C)(C)C)c(O)c(C(C)(C)C)c2)SC1O (configuration not stated) | 165 to 170 °C
22 | Cc1nn(C)c2c1N=C(C1CC1)N1CC(C)N=C21 (configuration not stated) | 107 to 110 °C
23 | COP(=O)(OC)[C@H](C)NC(=O)[C@H](C)NC(=O)[C@H](C)NC(=O)OCc1ccccc1 | 149 to 151 °C
24 | CN(C)c1ccc([N+](=O)[O-])cc1Cl | 71 to 73 °C
25 | COc1ccc(NC(=O)c2ccc(Br)cc2)cc1N1CCN(C(=O)OC(C)(C)C)CC1 | 156 to 158 °C

Row | SMILES | melting point
26 | CN(N)c1cc(N)nc(N)n1 | 214 to 217 °C
27 | CC(=O)c1c[nH]c2c3c(ccc12)OCC3 | 233 to 234 °C
28 | Cc1cc(Oc2c(Cl)cc(C(F)(F)F)cc2Cl)nn1C(=O)NC(C)C | 103 to 105 °C
29 | COC1C(O)CCC(O)(CSc2ccccc2)C1C1(C)OC1CC=C(C)C (configuration not stated) | 94 to 96 °C
30 | NC(C(=O)O)c1ccc(C(=O)O)cc1N1CCCC1 (configuration not stated) | 187 to 190 °C
31 | CC1(COc2cccc(-c3noc4ccsc34)c2)CO1 (configuration not stated) | 84 to 85 °C
32 | CCCC1=C(C#N)C(c2cccnc2)c2c[nH]nc2N1 (configuration not stated) | 201 °C
33 | CC(C)(C)OC(=O)CN1CCCNc2c1c(=O)c2=O | 167 to 168 °C
34 | CN(C)Cc1ccc(CSCCNC2=NS(=O)C(S(C)(=O)=O)=C2N)o1 (configuration not stated) | 134 to 137 °C
35 | FC(F)(F)c1cc(N2CCN(Cc3n[nH]c4ccccc34)CC2)cc(C(F)(F)F)c1 | 155 to 156 °C
36 | CCOCc1nc2c(N)nc(C)c(C)c2n1NC(C)C | 110 to 120 °C
37 | C=CCC(CC)(CC)C(=O)O[C@H]1C[C@H](O)C=C2C=C[C@H](C)[C@H](CC[C@@H]3C[C@@H](O)CC(=O)O3)[C@H]21 | 107 to 108 °C
38 | O=P(O)(O)CNC1CCCCC1 | 279 to 284 °C
39 | COC(=O)c1c(C2CC2)nn2ccc3c(c12)CCO3 | 170 to 172 °C
40 | COC(=O)CC(CSc1nc2ccccc2s1)C(=O)OC (configuration not stated) | 46 to 47 °C
41 | CCCCCS(=O)(=O)NC(=O)/C=C/c1ccc(OCCOC)cc1Oc1ncc(Br)cc1C | 160 °C
42 | CCCCCCCCCCCC12OC(C)CN1CC(C)O2 (configuration not stated) | > 130 °C
43 | CC(C)COC(=O)C(C#N)=CNCc1ccco1 | 85 to 87 °C
44 | COCCN1C(=O)C(C)(C)C(=O)Nc2cc(CN(CCn3cc(C)c4occc4c3=O)Cc3cccnc3C)ccc21 | 205 to 206 °C
45 | N#CCc1cccc(CO)c1[N+](=O)[O-] | 60 to 62 °C
46 | CCOC(=O)c1cn(CC)c2cc(F)c(F)c(C)c2c1=O | 157 to 159 °C
47 | CC(=O)NCCCC(=O)c1ccc(Cl)cc1CCC(=O)OCC(N)=O | 114 to 116 °C
48 | N#CSc1c(C(F)(F)F)nn(-c2c(Cl)cc(C(F)(F)F)cc2Cl)c1N | 49 to 50 °C
49 | COC(=O)c1ccc(OC)cc1S(=O)(=O)Cl | 69 to 72 °C

Now from value to molecule:

Row | melting point | SMILES
50 | 194 to 195 °C | CN(C)CC(=O)Nc1cccc2c1C(=O)c1c(NC(=O)CN(C)C)cccc1C2=O
51 | 171 °C | CC(C(=O)N1CCCC(C)(C)C1)N(C(=O)CN1C(=O)c2ccccc2C1=O)c1ccccc1 (racemic)
52 | 123 to 124 °C | CCOC(=O)c1ccc(-c2c(Cl)c(CCl)nc3sc4c(c23)CCN(C(=O)OCc2ccccc2)C4)cc1
53 | 190 to 191 °C | O=C(c1ccco1)N1Cc2c(-c3noc(C4CC4)n3)ncn2-c2ccccc21
54 | 264 to 265 °C | Cn1c(=O)[nH]c2ccc(-c3cccc([N+](=O)[O-])c3)cc21
55 | 227 °C | Cc1cc(-c2ccc(Cl)cc2)nc(-c2cccc(-c3ccc(S(N)(=O)=O)s3)c2)n1
56 | 212 to 214 °C | CN1C(=O)C2(COc3cc4c(cc32)OCCO4)c2c1cccc2-n1ccccc1=O (configuration not stated)
57 | 173 to 177 °C | O=Cc1cc2ccc3ccsc3c2c2ccccc12
58 | 127 to 130 °C | COC(=O)c1cc2ccc(Sc3ccc(C)cc3)nc2s1
59 | 178 to 180 °C | Cc1ccc(S(=O)(=O)NC(=O)Nc2ccc(Br)c(C)c2)cc1
60 | 115 to 116 °C | C=CCOc1ccc(OC)cc1C(=O)c1oc2ccc(Cl)cc2c1N
61 | > 260 °C | Cn1ccnc1C1Cn2cc(C(=O)NCc3ccc(Cl)cc3)c(=O)c3cc(CN4CCOCC4)cc(c32)O1 (configuration not stated)
62 | 82 to 84 °C | O=C1c2ccccc2S(=O)(=O)N1CCCCOc1ccc(OCc2ccccc2)cc1
63 | 105 to 112 °C | CN(C1CN(C(=O)Nc2ccc(C(F)(F)F)cc2)N=C1c1ccc(Cl)cc1)S(C)(=O)=O (configuration not stated)
64 | 72 °C | CCN(CC)C(=O)Oc1cc(-c2cccs2)nc2ccccc12
65 | 126 °C | CS(=O)(=O)c1ccc(-c2nn(Cc3ccccc3)c(C(F)(F)F)c2-c2ccc(F)cc2)cc1
66 | 97 °C | [N-]=[N+]=CC(=O)C(Cc1ccc(F)cc1)NC(=O)OCc1ccccc1 (racemic)
67 | 150 to 152 °C | Cc1cccn2c(=O)cc(/C=C/c3ccccc3)nc12
68 | 195 to 210 °C | O=c1oc2c([N+](=O)[O-])c(O)c(O)cc2cc1-c1ccccc1
69 | 144 to 145 °C | NC(=O)c1ccccc1-c1ccc2ccc(SCc3ccccc3)nc2n1
70 | 184 to 185 °C | CC(C)n1c(=O)n(C)c(=O)c2c(S(=O)CCCO)n(Cc3cccc4ccccc34)cc21 (configuration not stated)
71 | 101 °C | O=S(=O)(NCCc1ccc(C(O)CCCO)cc1)c1ccccc1Cl (configuration not stated)
72 | 235 to 240 °C | CC(=O)Nc1ccc(-c2ncc(NC(=O)OCc3ccccc3)c(=O)n2CC(=O)NC(Cc2ccccc2)C(=O)C(F)(F)F)cc1 (configuration not stated)
73 | 218 to 220 °C | O=C(O)C1CCc2c(c3cc(F)ccc3n2C(=O)c2ccccc2)C1 (configuration not stated)

Row | melting point | SMILES
74 | 60 to 61 °C | COc1ccc2cc(Cc3ccccc3)sc2c1
75 | 196 to 197 °C | N#CCCNC(=O)c1cccc(-c2ccc3c(c2)N(c2cc(Cl)cc(Cl)c2)CC3)c1
76 | 169 to 171 °C | CCC(Oc1ccc(CCC(=O)c2ccc(-c3ccc(C(F)(F)F)cc3)s2)c(Cl)c1Cl)C(=O)O (configuration not stated)
77 | 80 to 83 °C | CCOC(=O)[C@H](Cc1c[nH]c2ccccc12)NC(=O)OCc1ccccc1
78 | 187 to 189 °C | Cc1ncccc1Oc1ccc(NC(=O)C=Cc2ccccc2Cl)cn1
79 | 160 to 162 °C | O=C(O)CCc1cc2cc(Cl)ccc2n1S(=O)(=O)c1ccc(-c2ccccc2)cc1
80 | 55 to 57 °C | O=C(O)CCCCCCCc1nn(-c2ccccc2)c2c1CCC2
81 | 204 to 206 °C | c1ccc2c3c([nH]c2c1)CCN(CCCCc1ccncc1)C3
82 | 216 to 217 °C | CCOc1cc(O)cc2c1C(=O)N(COC(=O)c1c(Cl)cccc1Cl)S2(=O)=O
83 | 78 to 83 °C | CCc1oc2ccccc2c1C(=O)c1ccc(OCCO)cc1
84 | 157 to 160 °C | N#Cc1cc(Cn2cncn2)ccc1-c1ccc(OS(N)(=O)=O)cc1
85 | 228 °C | Cc1cc(N)nc(CCc2nc3cc(-c4ccc(F)cc4)cnc3[nH]2)c1
86 | 132 to 134 °C | COC(=O)c1sc2c(c1C)c1ccccc1n2Cc1ccccc1
87 | 169 to 170 °C | COc1ccnc(C(=O)N[C@H]2COC(=O)[C@H](Cc3ccccc3)[C@@H](OC(=O)C(C)C)[C@H](C)OC2=O)c1OCc1ccccc1
88 | 97 to 103 °C | O=C(NN=C(c1ccc(Cl)cc1)c1ccc(OC(F)(F)C(Cl)Cl)cc1)OCC(Cl)(Cl)Cl
89 | 213 to 214 °C | CC(C)(C)C(NC(=O)c1cccc(Cl)c1)Nc1c(Nc2cccnc2Cl)c(=O)c1=O (configuration not stated)
90 | 188 °C | COc1ccccc1NC(=O)Nc1nc(N(CCC(=O)O)Cc2ccc(Cl)c(Cl)c2)nc(=O)[nH]1
91 | 190 to 192 °C | O=C(/C=C/c1ccc(NS(=O)(=O)c2ccc(-c3ccccc3)cc2)cc1)NO
92 | 150 to 151 °C | Clc1ccc2nc(-c3ccccc3)oc2n1
93 | 145 to 150 °C | CN(C(=O)CN1C(=O)C(NC(=O)Nc2cccc(C#N)c2)N=C(CN2CCCCC2)c2ccccc21)c1ccccc1 (configuration not stated)
94 | 64 to 66 °C | Cc1ccc2noc(-c3ccccc3)c2c1
95 | 224 to 225 °C | N#Cc1c(N)oc2c1c(Cc1ccccc1)c(O)c1ccccc12
96 | 240 to 242 °C | Nc1ncccc1-c1nc2cc(F)cnc2n1-c1ccc(CC(=O)Nc2ccccc2)cc1
97 | > 300 °C | Cn1c2ccc([N+](=O)[O-])cc2c2c3ccccc3c(=O)[nH]c21
